The term solubility denotes the dissolved amount per volume that the medium holds. A higher solubility goes with a readily soluble substance. A word on the log P: it is a log measure of how a compound divides between an organic and an aqueous phase. Usually pKa stands for the negative logarithm of the acid dissociation constant.

Molecules are shown by their SMILES. ≈ marks a conversion by molar mass, not a printed value.

Series [1] can be described thus: Solubility assay: saturation shake-flask method. Type of series: physicochemical. The note with it: for solubility at 8 h: thermodynamic from solid, 37 °C, shake-flask. How it is done:
The solubility assays were performed according to the World Health Organization (WHO) guidelines protocols. […] A sample concentration was determined using high-performance liquid chromatography (HPLC) with ultraviolet (UV) detection.

Another series relates to Caco-2 cell monolayers. In words: Permeability assay: Caco-2 transport studies. Type of series: in vitro ADME. The protocol: Caco-2 cells were grown in a polycarbonate membrane. To reach the confluence, 250,000 cells/cm^2 were seeded in six Transwell plates and […] for 19–22 days with Dubelcco’s Modified Eagle’s Media, with 1% L-glutamine, 10% fetal bovine serum, and 1% penicillin/streptomycin, at 37 °C temperature, 90% relative humidity, and 5% CO2.
The confluence of the cells was tested by measuring the transepithelial electrical resistance (TEER). Permeability studies were conducted with an orbital shaking (50 rpm) and with pH 7.0 in both chambers. Standard protocols were described and validated previously in our laboratory. Four samples of 200 µL were taken and replaced with a fresh buffer from the receiver side at 15, 30, 45, and 90 min.
Permeability studies were performed in both directions: apical-to-basal (A-to-B) and basal-to-apical (B-to-A).
The apparent permeability coefficient was calculated according the following equation:(1) Creceiver,t=Qtotal/Vreceiver+Vdonor+((Creceiver,t−1·f)−Qtotal/Vreceiver+Vdonor)·e^−Peff 0,1·S·(1/Vreceiver+1/Vdonor)·Δt where Creceiver,t is the drug concentration in the receiver chamber at time t, Qtotal is the total amount of drug in both chambers, Vreceiver and Vdonor are the volumes of each chamber, Creceiver,t−1 is the drug concentration in the receiver chamber at the previous time, f is the sample replacement dilution factor, S is the surface area of the monolayer, Δt is the time interval, and Peff is the permeability coefficient as was described by Mangas-Sanjuan et al..
Experiments in the presence of the formulation excipients were done by dissolving a formulation tablet in 250 mL of buffer and filtrating the obtained dispersion to eliminate nonsoluble excipients.
A general note: Caco-2 cells form a polarised layer with tight junctions and transporters.

Series [2] in a line: Bulk phase partition coefficient n-octanol/phosphate buffer. The note with it: pH 6.8, read-out: n-Octanol partition coefficient P (converted). It is filed as physicochemical. How it is done:
The partition coefficient was calculated as the ratio between octanol concentration and the aqueous concentration. Three replicates were done to determine the average value.
Partition coefficients can be used as an index to provisionally classify compounds in terms of permeability.

For series [3] the following is noted: cited from earlier work.
The conditions of series [4]: cited from earlier work. This is another data set of the same source.

On to `CC[C@H](C)C(=O)O[C@H]1C[C@H](O)C=C2C=C[C@H](C)[C@H](CC[C@@H](O)C[C@@H](O)CC(=O)O)[C@H]21` [Pravastatin], for which the Solubility classification entry in series [1] is given as “highly soluble”. Moreover, the solubility at 8 h in series [1] (buffer solution pH 1.2, aqueous buffer, pH 1.2 buffer) is 440 ± 17.4 mg/mL (≈ 1040 mM). The solubility at 8 h in series [1] (buffer solution pH 4.5, aqueous buffer, pH 4.5 buffer) was found to be 504 ± 24.2 mg/mL (≈ 1190 mM). In addition, in series [1] (buffer solution pH 6.8, aqueous buffer, pH 6.8 buffer), the concentration in solution (solubility at 8 h) was 480 ± 17.4 mg/mL (≈ 1130 mM). For the same molecule, the “Volume in which the highest strength/dose (40 mg) would be soluble” value in series [1] (pH 1.2) worked out at 0.09 mL. In addition, the “Concentration dependence of permeability” value in the series with Caco-2 cell monolayers (Caco-2, 50-1000 μM) was “permeability increased at higher concentrations”. Also, the “Permeability compared with metoprolol” value in the series with Caco-2 cell monolayers (Caco-2, pH 7.0 both chambers, drug in solution) is reported as “lower than that of metoprolol”. Besides, the “Permeability in the presence of sodium azide” value in the series with Caco-2 cell monolayers (Caco-2, passive diffusion permeability, transporter contribution nullified) is listed as “as high as metoprolol permeability”. Moreover, the logD in series [2] was -0.155. Also, in series [3], the “First-pass hepatic effect (of the absorbed drug)” value is given as 66% and the “Intestinal absorption (of dose administered)” value is reported as 34%. Also, in series [4], the “log P” value was 1.65 and the pKa is 4.21.

As to `CC[C@H](C)C(=O)O[C@H]1C[C@H](O)C=C2C=C[C@H](C)[C@H](CC[C@@H](O)C[C@@H](O)CC(=O)O)[C@H]21` [Pravastatin sodium], in series [4], the “Solubility in chloroform” value is recorded as “practically insoluble”; the “Solubility in water, methanol and acetonitrile” value is on record as “easily soluble”.

For the molecule `COCCc1ccc(OCC(O)CNC(C)C)cc1` (stereo not shown) [Metoprolol], the logD in series [2] is -0.638.

Values taken from article PMC6956045 (Pharmaceutics, 2019).
